The test system of one data set is Ovcar8-IP tumors. Nature of the data set: Ovcar8-IP intraperitoneal tumor model in NSG mice, MSN-siRNA with or without cisplatin. To be noted: siRNA alone, without cisplatin. Type of data set: in vivo. How it is done:
Animal Studies. The animal studies conducted in these experiments were done in accordance with a protocol approved by the Institutional Animal Care and Use Committee at the City of Hope Beckman Research Institute. A total of 48 female NOD.Cg-Prkdc^scidIl2rg^tm1Wj1/SzJ (NSG) mice (The Jackson Laboratory, Bar Harbor, ME) were used. Ten week old (on average) mice were administered an intraperitoneal injection (IP) of 2.5×10^6 Ovcar8-IP cells in 200 μl of RPMI media. For all studies, mice were placed into four groups: MSN-siQ, MSN-siQ+cisplatin, MSN-si419H, and MSN-si419H+cisplatin (n=4 or n=8). Previous reports show no cellular uptake without MSNs^14, thus a siRNA-only group was not added to this study.
Bioluminescent imaging of mice (using Xenogen IVIS 100 biophotonic imaging system, STTARR, Toronto, Ontario, Canada) commenced seven days after injection of tumor cells in order to ensure engraftment, and continued once a week for four weeks. Mice were given a 100 μl IP injection of 20 mg/ml D-Luciferin (PerkinElmer, Waltham, MA). Ten minutes after the D-luciferin injection, mice were anesthetized with isoflurane (2%-5%) and placed in the biophotonic imager, and images were taken within two minutes. An alfalfa-free version of the regular rodent diet (alfalfa-free CA-1) was administered to the siQ mice to prevent autofluorescence from the regular diet.
IP injections of MSN+siRNA (siQ fluorescently labeled with ALEXAFLUOR® 647 or si419H) were conducted one week after the inoculation of Ovcar8-IP cells and done once or twice per week for a total of four weeks. Mice received 105 μl of 500 ng/μl MSN complexed with 15 μl of 10 μM siRNA per week, divided into one full or two half doses (n=4 and n=8, respectively). This is equivalent to […] MSN/week. Weekly 3 mg/kg IP cisplatin injections were given starting two weeks after initial inoculation of cells.
At completion of the experiment, all animals were euthanized via CO2 asphyxiation. […]
Statistics. All in vivo data was analyzed using one-way ANOVA with correction for multiple comparisons, comparing all groups to MSN-siQ treatment group. […]

The next data set deals with TWIST1. Nature of the data set: TWIST1 knockdown after Lipofectamine 2000 transfection of siRNA in MDA-MB-435S cells (western blot). Format: cell-based, human. To be noted: unmodified vs passenger-strand modified si419. How it is done:
Transient transfection of MDA-MB-435S GFP+ffluc was carried out using LIPOFECTAMINE® 2000 (Thermo Fisher Scientific, Waltham, MA) according to the manufacturer's instructions. LIPOFECTAMINE® 2000 transfection was used to confirm the functionality of the siRNA (si419 and si494) prior to testing their efficacy with MSNs. Transfection of siRNA with MSNs was carried out by incubating the MSNs with the siRNA overnight at 4° C. while rotating the tube constantly. The mixture consisted of 7 parts MSN (diluted to 500 ng/ul in sterile PBS) to 1 part siRNA (diluted to 10 uM). The final concentration for of MSNs and siRNA applied to cells was 17.5 ng/ul and 50 nM, respectively.
Western Blot. Following siRNA treatment described above, cells were lifted from tissue culture wells with 0.25% trypsin, pelleted, and lysed in RIPA buffer. Protein concentration was determined using a BCA Assay (Thermo Fisher Scientific). A total of 30 μg of protein per lane was run on 4% stacking and 12% resolving polyacrylamide gels. Following gel electrophoresis, protein was transferred to Immobilon-P PVDF membrane (Millipore, Billerica, MA) using a Trans-Blot SD Semi-Dry Transfer Cell (Bio-Rad, Hercules, CA). Membranes were then blocked with 5% dry milk dissolved in 1×PBS with 0.1% Tween-20. Antibodies were diluted in blocking buffer (1:250 for anti-TWIST1 and 1:2,500 for anti-Actin). […]
In general terms: A western blot detects proteins with antibodies after separation by electrophoresis.

A further data set has as its system TWIST. In words: TWIST knockdown after YTZ3-15 delivery of siRNA in ovarian cancer cell lines. Type of data set: cell-based. How it is done: PAMAM dendrimer design and delivery. The polyamidoamine (PAMAM) dendrimer used in this study is the […] third generation dendrimer, illustrated in FIG. 16A and previously described. To complex the dendrimer with siRNA, YTZ3-15 at 240 μM was mixed with […] in OptiMEM Low Serum Medium (Thermo Fisher). Upon complexing with siRNA, dendrimers form micelle structures with siRNA at the surface and the hydrophobic tails sequestered in the core (FIG. 16B). 14.6 μl YTZ3-15 and 10 μl siRNA were used per well of a 6-well plate. Final concentrations of YTZ3-15 and siRNA once added to cells were 1.75 μM and 50 nm, respectively. Where indicated, 3.5 μM YTZ3-15 and 100 nm siRNA were used for Ovcar8.
Western Blotting. Following siRNA treatment, cells were pelleted and lysed in RIPA buffer. Protein concentration was determined by BCA assay (Thermo Fisher). Following SDS-PAGE, protein was transferred to Amersham PVDF membrane (Genesee Scientific) using a BioRad Trans-Blot SD semi-dry transfer unit. Blots were then blocked in milk for one hour at room temperature or overnight at 4° C. Incubation with primary antibody took place for one hour at room temperature or overnight at 4° C. Antibodies were diluted in 5% milk, with 0.1-0.2% Tween-20. Antibodies used were TWIST 2c1a (Santa Cruz Biotechnology, Dallas, TX) at 1:250-1:500 dilution, β-Actin, A1978 (Sigma Aldrich, St. Louis, MO) at 1:2500-1:5000 dilution; and Horseradish Peroxidase (HRP) conjugated anti-mouse secondary antibodies. For film-based westerns, Blue Devil film (Genesee Scientific) and ECL Plus chemiluminescent substrate (Thermo Fisher) were used to detect protein. For digital westerns, the Syngene Pxi4 digital blot imager and Michigan Diagnostics FemtoGlow chemilumescent substrate were used.

One substance from patent US11926826B2, “Twist signaling inhibitor compositions and methods of using the same” (City of Hope, priority 2016, dated 2024) can be followed below.

“si419: anti-TWIST siRNA; passenger 5′-GGACAAGCUGAGCAAGAUU-3′ (SEQ ID No: 1), guide 5′-AAUCUUGCUCAGCUUGUCCUU-3′ (SEQ ID No: 2) (listed as RNA, chemistry not fully specified)”: the “change in tumor weight” value in the data set on Ovcar8-IP tumors was “did not produce a statistically significant change in tumor weight”. For the same substance, the “knockdown (efficiency, FIG. 6)” value in the data set on TWIST1 is listed as “approximately 80%”. The TWIST knockdown result in the data set on TWIST (A2780R) was “successfully knocked down TWIST”; in the data set on TWIST (Ovcar8, double the usual dose (100 nM siRNA)) it was “minimal”.
